Test results as given in US6410566B1, “Cyclic amine derivatives and their use as drugs” (Teijin Limited, priority 2000, dated 2002).

Columns and labels:
[1] = molecular target: T1, binding of human MCP-1 to THP-1 cells (Homo sapiens, UniProt P41597); assay: Inhibition of binding of [125I]-labeled baculovirus expressed human MCP-1 to THP-1 cells (Method 1); settings: for inhibition at 100 µM: Method 1, at 100 μM; for inhibition at 10 µM: Method 1, at 10 μM
T1 construct: endogenous in cells; host or cells: THP-1 (human monocytic leukemia cell line), whole cells
T1 sequence (P41597 1-360 isoform P41597-2): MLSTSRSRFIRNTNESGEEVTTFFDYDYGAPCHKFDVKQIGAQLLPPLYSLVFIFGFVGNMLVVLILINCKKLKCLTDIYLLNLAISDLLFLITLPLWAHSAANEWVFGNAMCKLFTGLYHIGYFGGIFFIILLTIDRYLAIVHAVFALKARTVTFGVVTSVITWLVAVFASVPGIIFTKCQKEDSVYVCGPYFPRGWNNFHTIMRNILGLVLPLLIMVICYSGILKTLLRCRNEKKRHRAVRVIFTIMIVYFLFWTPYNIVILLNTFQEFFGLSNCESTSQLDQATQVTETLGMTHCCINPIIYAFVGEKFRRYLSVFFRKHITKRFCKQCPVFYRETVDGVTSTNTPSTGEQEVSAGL
Excerpt: Measurement of Inhibition of MCP-1 Binding to THP-1 Cells 1. Construction of recombinant baculovirus carrying the human MCP-1 gene Based on the previously published human MCP-1 gene sequence (for example T. Yoshirnura et al., FEBS Lett., 1989, 244, 487-493), two synthetic DNA primers ([NT] and [NT]) flanked by restriction enzyme sites were used to amplify a DNA fragment from cDNA derived from human endothelial cells (purchased from Kurabow Co.); the amplified fragment was cut with the restriction enzymes (PstI and XbaI), ligated into a transfer vector pVL1393 (Invitrogen Co.), and the resulting vector was co-transfected along with infectious baculovirus into Sf-9 insect cells and the supernatant was plaque assayed to yield human MCP-1 gene baculovirus recombinant. […] Using the method of K. Ishii et al. […] The culture supernatant was affinity purified using a heparin Sepharose column (Pharmacia Co.) and then further purified using reverse phase HPLC (Vydac C18 column) to prepare purified human MCP-1. […] 3-1. […] The test. compound was diluted in the assay buffer and used as the test compound solution. [^125I]-labeled human MCP-1 described above was diluted in assay buffer to 1 mCi/mL and used as the labeled ligand solution. In a 96 well filter plate (Millipore Co.), 25 μL of test compound solution, 25 μL of labeled ligand solution and 50 μL of cell suspension were aliquoted into each well in this order, stirred (total reaction volume 100 μL), and incubated for one hour at 18° C. After the reaction, the reaction solution was filtered, and the filter was washed twice with 200 μL of cold PBS (200 μL of cold PBS was added and then filtered). The filter was air-dried and 25 μL of liquid sciatillator was added into each well. The radioactivity retained by the cells on the filter were measured using TopCount (Packard Instrument Co.). To calculate the ability of test compound to inhibit binding of human MCP-1 to THP-1 cells, non-specific binding determined by adding 100 ng of unlabeled human MCP-1 in place of the test compound was subtracted, while the counts with no test compound added was taken as 100%. Inhibition (%)=(1-(A-B)/(C-B))×100 (A, counts with test compound added; B, counts with 100 ng of unlabeled human MCP-1 added; C, counts with [^125I]-labeled human MCP-1 added).

[2] = molecular target: T1, binding of human MCP-1 to THP-1 cells; assay: Inhibition of binding of [125I]-labeled baculovirus expressed human MCP-1 to THP-1 cells (Method 2); settings: Method 2, at 1 μM
Excerpt: 1. Construction of recombinant baculovirus carrying the human MCP-1 gene
Based on the previously published human MCP-1 gene sequence (for example T. Yoshirnura et al., FEBS Lett., 1989, 244, 487-493), two synthetic DNA primers (5′-[…]-3′ and 5′-[…]-3′) flanked by restriction enzyme sites were used to amplify a DNA fragment from cDNA derived from human endothelial cells (purchased from Kurabow Co.); the amplified fragment was cut with the restriction enzymes (PstI and XbaI), ligated into a transfer vector pVL1393 (Invitrogen Co.), and the resulting vector was co-transfected along with infectious baculovirus into Sf-9 insect cells and the supernatant was plaque assayed to yield human MCP-1 gene baculovirus recombinant.
2. Synthesis of [^125I]-labeled human MCP-1 expressed in baculovirus
Using the method of K. Ishii et al. (Biochem Biophys Research Communications, 1995, 206, 955-961), 5×10^6 Sf-6 insect cells was infected with 5×10^7 PFU (plaque forming units) of the above human MCP-1 recombinant baculovirus and cultured for 7 days in Ex-Cell 401 medium. The culture supernatant was affinity purified using a heparin Sepharose column (Pharmacia Co.) and then further purified using reverse phase HPLC (Vydac C18 column) to prepare purified human MCP-1. The purified human MCP-1 was protein labeled by Amersham Co. using the Bolton Hunter method to yield [^125I]-labeled baculovirus expressed human MCP-1 (specific activity 2000 Ci/mmol).
3-2. Measurement of inhibition of binding of [^125I]-labeled baculovirus expressed human MCP-1 to THP-1 cells (Method 2)
Human monocytic leukemia cell line THP-1 was suspended in assay buffer (50 mM HEPES, pH 7.4, 1.0 mM CaCl2, 5.0% mM MgCl2, 0.5% BSA) to give a cell suspension of a concentration of 1×10^7 cells/mL. The test compound was diluted in the assay buffer and used as the test compound solution. [^125I]-labeled human MCP-1 described above was diluted in assay buffer to 1 mCi/mL and used as the labeled ligand solution. In a 96 well filter plate (Millipore Co.), 25 μL of test compound solution, 25 μL of labeled ligand solution and 50 μL of cell suspension were aliquoted into each well in this order, stirred (total reaction volume 100 μL), and incubated for one hour at 18° C.
After the reaction, the reaction solution was filtered, and the filter was washed twice with 200 μL of cold PBS (200 μL of cold PBS was added and then filtered). The filter was air-dried and 25 μL of liquid scintillator was added into each well. The radioactivity retained by the cells on the filter were measured using TopCount (Packard Instrument Co.).
To calculate the ability of test compound to inhibit binding of human MCP-1 to THP-1 cells, non-specific binding determined by adding 100 ng of unlabeled human MCP-1 in place of the test compound was subtracted, while the counts with no test compound added was taken as 100%.
Inhibition (%)={1−(A−B)/(C−B)}×100
(A, counts with test compound added; B, counts with 100 ng of unlabeled human MCP-1 added; C, counts with [^125I]-labeled human MCP-1 added).

[3] = test system: THP-1 cells; assay: Inhibition of cell chemotaxis caused by MCP-1; format: cell-based; settings: Homo sapiens, MCP-1 20 ng/mL, read-out: inhibition of cell migration IC50
Protocol: Measurement of Inhibition of Cell Chemotaxis
In order to determine the inhibition of cell chemotaxis by the compounds of this invention, we measured cell chemotaxis caused by monocyte chemotactic factor MCP-1 using the human monocytic leukemia cell line THP-1 as the chemotactic cell according to the method of Fall et al. (J. Immunol. Methods, 190, 33,239-247). 2×10^6 cells/mL of THP-1 cells (suspended in RPMI-1640 (Flow Laboratories Co.)+10% FCS) was placed in the upper chamber (200 μL) of a 96 well micro-chemotaxis chamber (Neuroprobe; registered tradename), and human recombinant MCP-1 in a same solution (Peprotech Co.) at a final concentration of 20 ng/mL was placed in the lower chamber, with a polycarbonate filter (PVP-free, Neuroprobe; registered tradename) placed between the two chambers. These were incubated at 37° C. for 2 hr in 5% CO2.
The filter was removed, and the cells which had migrated to the underside of the filter was fixed, stained using Diff Quick (Kokusai Shiyaku Co.) and then quantitated using a plate reader (Molecular Device Co.) at a wavelength of 550 nm to determine the index of cell migration as a mean of 3 wells. In addition, test compounds were placed in the upper and lower chambers along with THP-1 and MCP-1, respectively, and the inhibition of cell migration (inhibition IC50 (μM)) was determined.

inhibition at 100 µM [1] | inhibition at 10 µM [1] | inhibition at 1 µM [2] | IC50 [3] | SMILES
> 80% | – | – | – | O=C(CNC(=O)Nc1ccc(C(F)(F)F)cc1)NCC1CCN(Cc2ccc(Cl)cc2)CC1 [Compound No. 852, 1-(4-Chlorobenzyl)-4-[{2-(3-(4-trifluoromethylphenyl)ureido)acetylamino}methyl]piperidine]
– | 20 to 50% | – | – | NC(=O)c1ccc(CN2CCC(CNC(=O)CNC(=O)c3cccc(C(F)(F)F)c3)CC2)cc1 [Compound No. 925, 1-(4-Carbamoylbenzyl)-4-[{N-(3-(trifluoromethyl)benzoyl)glycyl}aminomethyl]piperidine]
– | 50 to 80% | – | – | CN(C)c1ccc(CN2CCC(CNC(=O)CNC(=O)c3cccc(C(F)(F)F)c3)CC2)cc1 [Compound No. 937, 1-{4-(Dimethylamino)benzyl}-4-[{N-(3-(trifluoromethyl)benzoyl)glycyl}aminomethyl]piperidine]
– | – | > 80% | < 100 nM | C=Cc1ccc(CN2CC[C@@H](NC(=O)CNC(=O)c3cc(C(F)(F)F)ccc3N)C2)cc1 [Compound No. 1701, (R)-3-[{N-(2-Amino-5-(trifluoromethyl)benzoyl)glycyl}amino]-1-(4-vinylbenzyl)pyrrolidine]
– | – | > 80% | < 100 nM | COc1ccc(CN2CC[C@@H](NC(=O)CNC(=O)c3cc(OC(F)(F)F)ccc3N)C2)cc1O [Compound No. 1896, (R)-3-[{N-(2-Amino-5-trifluoromethoxybenzoyl)glycyl}amino]-1-(3-hydroxy-4-methoxybenzyl)pyrrolidine]
– | – | > 80% | < 100 nM | Nc1cc(Cl)ccc1CN1CC[C@@H](NC(=O)CNC(=O)c2cc(OC(F)(F)F)ccc2N)C1 [Compound No. 1921, (R)-3-[{N-(2-Amino-5-trifluoromethoxybenzoyl)glycyl}amino]-1-(2-amino-4-chlorobenzyl)pyrrolidine]
– | – | > 80% | < 100 nM | Cc1ccc(CN2CCC(CNC(=O)CNC(=O)c3cc(F)c(F)cc3N)CC2)cc1N [Compound No. 2114, 4-[{N-(2-Amino-4,5-difluorobenzoyl)glycyl}aminomethyl]-1-(3-amino-4-methylbenzyl)piperidine]
– | – | > 80% | < 100 nM | Nc1cc(CN2CC[C@@H](NC(=O)CNC(=O)c3cc(C(F)(F)F)ccc3N)C2)ccc1Cl [Compound No. 2132, (R)-1-(3-Amino-4-chlorobenzyl)-3-[{N-(2-amino-5-trifluoromethylbenzoyl)glycyl}amino]pyrrolidine]
– | – | – | < 100 nM | Nc1cc(CN2CCC(CNC(=O)CNC(=O)c3cc(F)c(F)cc3N)CC2)ccc1O [Compound No. 2141, 4-[{N-(2-amino-4,5-difluorobenzoyl)glycyl}aminomethyl]-1-(3-amino-4-hydroxybenzyl)piperidine]
– | – | – | < 100 nM | CNc1cc(CN2CC[C@@H](NC(=O)CNC(=O)c3cc(C(F)(F)F)ccc3N)C2)ccc1O [Compound No. 2158, (R)-3-[{N-(2-Amino-5-trifluoromethylbenzoyl)glycyl}amino]-1-(3-methylamino-4-hydroxybenzyl)pyrrolidine]
> 80% | – | – | – | O=C(CNC(=O)c1cc(C(F)(F)F)cc(C(F)(F)F)c1)N[C@H]1CCN(Cc2ccc(Cl)cc2)C1 [compound 5, (S)-3-[N-{3,5-Bis (trifluoromethyl)benzoyl}glycyl]amino-1-(4-chlorobenzyl)pyrrolidine]
– | – | > 80% | < 100 nM | Cc1noc(C)c1CN1CC[C@@H](NC(=O)CNC(=O)c2cc(F)cc(C(F)(F)F)c2)C1 [compound 1191, (R)-3-[N-(3-Fluoro-5(trifluoromethyl)benzoyl)glycyl]amino-1-(3,5-dimethylisoxazol-4-ylmethyl)pyrrolidine]
